# Measured values from article PMC12163635, “Synthetic Retinoids for the Modulation of Genomic and Nongenomic Processes in Neurodegenerative Diseases” (ACS Omega, 2025).
# Tested on: Sil-15 cells containing a RARE driving a lacZ reporter
# Test: X-Gal-based RA reporter assay (genomic response)
# Assay type: cell-based
# Parameters: genomic response Emax (±95% CI): unit not given here
# Details: for genomic EC50 compared with ATRA / genomic E max compared with ATRA: nonoverlapping 95% CI; for EC50: read-out: genomic response EC50 (±95% CI), overnight, 10^–6 to 10^–14 M; for EC50 / genomic response Emax (±95% CI): Sil-15 reporter cells; for genomic response Emax (±95% CI): absorbance at 650 nm
# Source text: Following chemical design and synthesis, the synthetic retinoid library was screened for genomic and nongenomic biological activities and compared to the response of the endogenous retinoid, ATRA. In these assays, the EC50 value represented the concentration of retinoid that gave half-maximal response (potency), while the E max value represented the maximum response achievable from the retinoid (efficacy).
# The transcriptional genomic activity of the retinoids was quantified using Sil-15 cells containing a RARE driving a lacZ reporter. […] Twenty-two of the synthetic retinoids were effective in inducing genomic activity. […] In addition, the retinoids varied in their efficacies.
# The Sil-15 cell line was used in the X-gal RA reporter assay described below. The cells were grown in Dulbecco’s modified Eagle’s medium (DMEM) containing 10% fetal bovine serum (FCS) (Invitrogen/Gibco), 0.6% penicillin-streptomycin (Gibco) and 0.8 mg/mL G418 sulfate (Sigma) for selection. They were maintained in a humidified atmosphere containing 5% CO2 at 37 °C. The medium was changed three times a week and the cells were passaged at 70% confluence using 0.05% trypsin-EDTA.
# Sil-15 cells are F9 teratocarcinoma cells stably transfected with a plasmid containing the LacZ gene under the control of a DR5-type RA response element (RARE). The reporter cell line was used to detect the transcriptional genomic activity of ATRA and other retinoids by colorimetrically quantifying the insoluble blue product generated by β-galactosidase from X-gal during the assay. The assay was performed by plating 100,000 cells per well in the 0.1% gelatin-coated 96-well plates and leaving them to attach overnight. The ATRA/retinoids dilutions ranging from 10^–6 to 10^–14 M were incubated on the reporter cells overnight at 37 °C, in 5% CO2. A standard curve of ATRA was included in each experiment to ensure the reproducibility of the results between assays performed on different days. All the assays for ATRA as well as the retinoids were quantified in triplicate. Serial dilutions of retinoids were prepared from a stock solution under red/orange light. The stock solutions prepared in DMSO for each retinoid varied depending on the solubility of each compound. Each stock was stored at −20 °C and protected from light. The next day, Sil-15 cells were washed with PBS, fixed with 1% glutaraldehyde and 1 mM MgCl2 solution for 15 min, and developed in X-gal developing solution (0.2% X-Gal, 1 mM MgCl2, 3.3 mM potassium ferricyanide and 3.3 mM potassium ferrocyanide in PBS). The plates were read on an E max microplate reader (Molecular Devices) at 650 nm.
# All data are presented as mean ± SEM of three independent experiments with biological triplicates. Statistical analyses were performed in Microsoft Office Excel 2019 or GraphPad Prism 7.0c version (Prism, GraphPad Software, San Diego, CA). Neurite outgrowth data were analyzed by one-way ANOVA with Newman-Keuls multiple comparison test as appropriate; P value <0.05 was considered statistically significant. *P < 0.05, **P < 0.01. Data for X-Gal and ERK1/2 phosphorylation were analyzed using sigmoidal dose–response analysis of log (agonist) versus response curve (stimulation).
Structure (SMILES),genomic EC50 compared with ATRA,EC50 [nM],genomic response Emax (±95% CI),genomic E max compared with ATRA
"Cc1cc2c(cc1C#Cc1cc(F)c(C(=O)O)c(F)c1)C(C)(C)CCC2(C)C [Compound 19, 2,6-Difluoro-4-[2-(3,5,5,8,8-pentamethyl-5,6,7,8-tetrahydronaphthalen-2-yl)ethynyl]benzoic Acid]",significantly lower EC50 than ATRA,0.27,,
"COc1cc2c(cc1C#Cc1ncc(C(=O)O)cn1)C(C)(C)CCC2(C)C [Compound 29, 2-[2-(3-Methoxy-5,5,8,8-tetramethyl-5,6,7,8-tetrahydronaphthalen-2-yl)ethynyl]pyrimidine-5-carboxylic Acid]",significantly higher EC50 values than ATRA,603,266 (±110),
"Cc1cc2c(cc1C#Cc1ccc(C(=O)O)c(F)c1)C(C)(C)CCC2(C)C [Compound 17, 2-Fluoro-4-[2-(3,5,5,8,8-pentamethyl-5,6,7,8-tetrahydronaphthalen-2-yl)ethynyl]benzoic Acid]",significantly lower EC50 than ATRA,0.134,170 (±9.35),
"CC1(C)CCC(C)(C)c2nc(C#Cc3ccc(C(=O)O)cc3F)cnc21 [Compound 31, 3-Fluoro-4-[2-(5,5,8,8-tetramethyl-5,6,7,8-tetrahydroquinoxalin-2-yl)ethynyl]benzoic Acid]",significantly lower EC50 than ATRA,0.382,,
"CC1(C)CCC(C)(C)c2cc(C#Cc3ccc(C(=O)O)cc3Cl)ccc21 [Compound 16, 3-Chloro-4-[2-(5,5,8,8-tetramethyl-5,6,7,8-tetrahydronaphthalen-2-yl)ethynyl]benzoic Acid]",significantly higher EC50 values than ATRA,13.6,97.2 (±7.9),significantly lower E max than ATRA
"CC1(C)CCC(C)(C)c2cc(C#Cc3ccc(C(=O)O)cn3)ccc21 [Compound 23, 6-[2-(5,5,8,8-Tetramethyl-5,6,7,8-tetrahydronaphthalen-2-yl)ethynyl]pyridine-3-carboxylic Acid]",,,210 (±8.45),significantly higher E max than ATRA
"CC1(C)CCC(C)(C)c2nc(C#Cc3ccc(C(=O)O)cc3)cnc21 [Compound 30, 4-[2-(5,5,8,8-Tetramethyl-5,6,7,8-tetrahydroquinoxalin-2-yl)ethynyl]benzoic Acid]",significantly lower EC50 than ATRA,,,
"Cc1sc(-c2ccc(C(=O)O)cc2)nc1-c1ccc2c(c1)C(C)(C)CCC2(C)C [GZ25, reference compound]",significantly lower EC50 than ATRA,0.184,209 (±15.5),significantly higher E max than ATRA
"Cc1sc(-c2ccc(C(=O)O)cn2)nc1-c1cnc2c(n1)C(C)(C)CCC2(C)C [Compound 41, 6-[5-Methyl-4-(5,5,8,8-tetramethyl-5,6,7,8-tetrahydroquinoxalin-2-yl)-1,3-thiazol-2-yl]pyridine-3-carboxylic Acid]",significantly higher EC50 values than ATRA,16.9,144 (±16.5),significantly lower E max than ATRA
"CC1(C)CCC(C)(C)c2cc(C#Cc3cc(F)c(C(=O)O)c(F)c3)ccc21 [Compound 15, 2,6-Difluoro-4-[2-(5,5,8,8-tetramethyl-5,6,7,8-tetrahydronaphthalen-2-yl)ethynyl]benzoic Acid]",,,185 (±4.9),significantly higher E max than ATRA
"CC1(C)CCC(C)(C)c2cc(C#Cc3cnc(C(=O)O)cn3)ccc21 [Compound 25, 5-[2-(5,5,8,8-Tetramethyl-5,6,7,8-tetrahydronaphthalen-2-yl)ethynyl]pyrazine-2-carboxylic Acid]",significantly higher EC50 values than ATRA,3.98,174 (±8.25),
"CC1(C)CCC(C)(C)c2cc(C#Cc3ccc(C(=O)O)c(F)c3)ccc21 [Compound 13, 2-Fluoro-4-[2-(5,5,8,8-tetramethyl-5,6,7,8-tetrahydronaphthalen-2-yl)ethynyl]benzoic Acid]",,,190 (±8.2),significantly higher E max than ATRA
"COc1cc2c(cc1C#Cc1ccc(C(=O)O)cn1)C(C)(C)CCC2(C)C [Compound 27, 6-[2-(3-Methoxy-5,5,8,8-tetramethyl-5,6,7,8-tetrahydronaphthalen-2-yl)ethynyl]pyridine-3-carboxylic Acid]",significantly higher EC50 values than ATRA,3.16,176 (±8.55),
"Cc1cc2c(cc1C#Cc1ccc(C(=O)O)cn1)C(C)(C)CCC2(C)C [Compound 26, 6-[2-(3,5,5,8,8-Pentamethyl-5,6,7,8-tetrahydronaphthalen-2-yl)ethynyl]pyridine-3-carboxylic Acid]",significantly lower EC50 than ATRA,0.427,177 (±6.65),
"CC1(C)CCC(C)(C)c2cc(C#Cc3ccc(C(=O)O)cc3F)ccc21 [Compound 14, 3-Fluoro-4-[2-(5,5,8,8-tetramethyl-5,6,7,8-tetrahydronaphthalen-2-yl)ethynyl]benzoic Acid]",,0.0581,149 (±14.9),significantly lower E max than ATRA
"Cc1cc2c(cc1C#Cc1ccc(C(=O)O)cc1F)C(C)(C)CCC2(C)C [Compound 18, 3-Fluoro-4-[2-(3,5,5,8,8-pentamethyl-5,6,7,8-tetrahydronaphthalen-2-yl)ethynyl]benzoic Acid]",,1.38,140 (±12.1),significantly lower E max than ATRA
"Cc1sc(-c2ccc(C(=O)O)c(F)c2)nc1-c1cnc2c(n1)C(C)(C)CCC2(C)C [Compound 42, 2-Fluoro-4-[5-methyl-4-(5,5,8,8-tetramethyl-5,6,7,8-tetrahydroquinoxalin-2-yl)-1,3-thiazol-2-yl]benzoic Acid]",significantly lower EC50 than ATRA,0.0155,,significantly higher E max than ATRA
"Cc1cc2c(cc1C#Cc1ncc(C(=O)O)cn1)C(C)(C)CCC2(C)C [Compound 28, 2-[2-(3,5,5,8,8-Pentamethyl-5,6,7,8-tetrahydronaphthalen-2-yl)ethynyl]pyrimidine-5-carboxylic Acid]",,0.826,192 (±12.7),
"Cc1sc(-c2ccc(C(=O)O)cc2F)nc1-c1cnc2c(n1)C(C)(C)CCC2(C)C [Compound 43, 3-Fluoro-4-[5-methyl-4-(5,5,8,8-tetramethyl-5,6,7,8-tetrahydroquinoxalin-2-yl)-1,3-thiazol-2-yl]benzoic Acid]",,1.64,195 (±35.2),significantly higher E max than ATRA
"Cc1sc(-c2ccc(C(=O)O)cc2)nc1-c1cnc2c(n1)C(C)(C)CCC2(C)C [Compound 40, 4-[5-Methyl-4-(5,5,8,8-tetramethyl-5,6,7,8-tetrahydroquinoxalin-2-yl)-1,3-thiazol-2-yl]benzoic Acid]",significantly lower EC50 than ATRA,0.00232,181 (±7.45),significantly higher E max than ATRA
